{"source": "patent US7989613B2", "about": "“Inhibition of metallo-β-lactamase by RNA” (priority 2005, dated 2011)", "key": {"[1]": {"molecular_target": "B. cereus 5/B/6 metallo-β-lactamase (Bacillus cereus, UniProt P14488)", "sequence (P14488 29-256, looked up, natural form)": "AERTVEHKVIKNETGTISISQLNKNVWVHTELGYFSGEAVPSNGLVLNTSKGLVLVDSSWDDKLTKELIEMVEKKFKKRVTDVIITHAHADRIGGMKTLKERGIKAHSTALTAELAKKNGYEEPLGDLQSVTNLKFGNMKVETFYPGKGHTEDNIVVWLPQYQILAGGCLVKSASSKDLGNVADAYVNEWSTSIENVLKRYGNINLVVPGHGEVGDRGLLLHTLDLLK", "settings": "for IC50: […] cephalosporin C; for Ki: steady-state kinetics", "method": "Assay of the purified B. cereus 5/B/6 metallo-β-lactamase and B. cereus 569/H/9 β-lactamase I. Metallo-β-lactamase activity assays using cephalosporin C as substrate were determined as previously reported (Myers and Shaw, 1989). The cephalosporin C absorbance maximum at 260 nm was monitored as a function of time (Davies et al., 1974). One unit of activity is generally defined as the amount of enzyme required to catalyze the hydrolysis of about 1 μmol of β-lactam substrate (cephalosporin C) per minute at 30° C. at pH 7.0. […] The assays were carried out at 30° C. in a 0.1 cm path length quartz cell and the total assay volume was 250 μL.\nReversible inhibition studies for metallo-β-lactamase. To test for reversible inhibition, metallo-β-lactamase was incubated with various concentrations of the possible inhibitors in 50 mM MOPS buffer, pH 7.0. The enzyme activity remaining was determined (Myers and Shaw, 1989).\nVarious assays were conducted with the 30-mer RNA in the presence of metallo-β-lactamase to determine its inhibition values (IC50, Ki, and Ki′). The 30-mer RNA was tested for inhibition of β-lactamase I and bovine carboxypeptidase A. The 30-mer RNA was also tested for inhibition of metallo-β-lactamase in the presence of Zn^2+.\n30-mer RNA. The IC50 value for the 30-mer RNA was determined by measuring the rate of enzymatic hydrolysis of cephalosporin C with different amounts of the 30-mer RNA."}, "[2]": {"molecular_target": "B. cereus 569/H/9 β-lactamase I (Bacillus cereus, UniProt P00809)", "sequence (P00809 28-306)": "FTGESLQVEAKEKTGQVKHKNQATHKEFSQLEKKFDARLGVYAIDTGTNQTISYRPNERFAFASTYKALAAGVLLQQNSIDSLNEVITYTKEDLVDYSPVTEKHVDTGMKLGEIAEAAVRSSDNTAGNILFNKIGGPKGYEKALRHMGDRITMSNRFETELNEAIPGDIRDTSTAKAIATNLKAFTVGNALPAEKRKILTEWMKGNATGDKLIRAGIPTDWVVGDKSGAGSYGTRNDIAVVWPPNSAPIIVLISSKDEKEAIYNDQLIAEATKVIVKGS", "settings": "250 nM of the 30-mer (23×IC50); 1.1 mM benzylpenicillin, 50 mM MOPS pH 7.0; listed as 30-mer", "method": "The β-lactamase I activity assays used was modified from Davies et al. (1974), which described a general method of β-lactamase I activity assays. Briefly, the enzyme was incubated with 20 mM EDTA (pH 7.0) for 15 min. at room temperature prior to the assay. The enzymatic hydrolysis of 1.1 mM benzylpenicillin in […] MOPS (pH 7.0) and 1 mM EDTA was continuously monitored at 231 nm at 30° C. in a 1-cm pathlength quartz cell in a total volume of 1 mL. One unit of β-lactamase activity was generally defined as the amount of enzyme required to hydrolyze about one μmole of substrate/min. at 30° C. at pH 7.0.\nAn experiment was performed to test the specificity of inhibition of the 30-mer (Seq ID No.:6). The inhibition of B. cereus 569/H/9 β-lactamase I (Seq ID No.:7) was tested using various concentrations of the 30-mer RNA. The concentration of the substrate (benzylpenicillin) was 1.1 mM in the buffer (50 mM MOPS (pH 7.0)/1 […] EDTA)."}, "[3]": {"molecular_target": "T1, bovine carboxypeptidase A (Bos taurus, UniProt P00730)", "T1 construct": "purchased Sigma", "T1 sequence (P00730 111-419)": "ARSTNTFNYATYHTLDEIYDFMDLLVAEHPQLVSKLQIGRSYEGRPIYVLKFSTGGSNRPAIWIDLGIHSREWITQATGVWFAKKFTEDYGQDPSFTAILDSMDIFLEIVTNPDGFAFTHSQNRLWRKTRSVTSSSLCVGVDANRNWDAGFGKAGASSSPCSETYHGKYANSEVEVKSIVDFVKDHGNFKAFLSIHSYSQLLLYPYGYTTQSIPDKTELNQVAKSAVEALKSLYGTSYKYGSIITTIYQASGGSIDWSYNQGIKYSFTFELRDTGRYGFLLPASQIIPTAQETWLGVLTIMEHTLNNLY", "assay": "Inhibition of carboxypeptidase A (hydrolysis of hippuryl-L-phenylalanine, 254 nm)", "format": "biochemical", "settings": "250 nM of the 30-mer (23×IC50), 1 mM hippuryl-L-phenylalanine, 0.05 M Tris-HCl pH 7.5, 0.5 M NaCl", "method": "Assay of bovine carboxypeptidase A. The assay of bovine carboxypeptidase A is based on the method of Folk and Schirmer (1963). The rate of hydrolysis of hippuryl-L-phenylalanine is determined by monitoring the increase in absorbance at 254 nm (25° C., pH 7.5). The enzyme was dissolved in 10% lithium chloride to a concentration of 1-3 units per mL. Hippuryl-L-phenylalanine (0.001 M) was dissolved in 0.05 M Tris-HCl, pH 7.5, with 0.5 M sodium chloride. In a 1-cm pathlength cuvette, 1.0 mL of substrate was added and incubated in the spectrophotometer at 25° C. for 3-4 minutes to reach temperature equilibration and to establish blank rate. 50 μL of diluted enzyme was added to record the increase in AbS254.\nIn addition, the zinc dependent bovine carboxypeptidase A was used to test the specificity of inhibition by this 30-mer. […] The concentration of the substrate (hippuryl-L-phenylalanine) was 1 mM in the buffer (0.05 M Tris-HCl, pH 7.5, with 0.5 M sodium chloride)."}}, "note": "“Also recorded” adds a separate entry of the source. Like-named read-outs stand apart in the source and are kept apart here."}
{"substance": "5′-UGGCUGCAGGGUCUGGCCCCCCGUUUGGUG-3′ (UGGCUGCAGGGUCUGGCCCCCCGUUUGGUG; chemistry not given here) [30-mer RNA, 30-mer RNA aptamer selected by twelve rounds of SELEX against B. cereus 5/B/6 metallo-β-lactamase]", "values": [{"measurement": "IC50", "setting": "[1]; read-out: IC50 for B. cereus 5/B/6 metallo-β-lactamase in the presence of Zn2+ ions, 50 mM MOPS and 1 mM ZnSO4, pH 7.0", "value": 19.3, "unit": "µM"}, {"measurement": "IC50", "setting": "[1]; read-out: IC50 for B. cereus 5/B/6 metallo-β-lactamase, 50 mM MOPS pH 7.0, no added Zn2+", "value": 0.011, "unit": "µM"}, {"measurement": "Ki", "setting": "[1]; read-out: Ki (dissociation constant for the inhibitor from the enzyme-inhibitor complex), slope replot", "value": 0.002, "unit": "µM"}, {"measurement": "Ki", "setting": "[1]; read-out: Ki′ (dissociation constant for the inhibitor from the enzyme-substrate-inhibitor complex), intercept replot", "value": 0.015, "unit": "µM"}, {"measurement": "IC50 / inhibition of metallo-β-lactamase, range in words", "setting": "[1]; stated in words", "value": "nanomolar range"}, {"measurement": "type of inhibition", "setting": "[1]; steady-state kinetic study, Lineweaver-Burk plot", "value": "noncompetitive inhibition"}, {"measurement": "effect on the activity of B. cereus 569/H/9 β-lactamase I", "setting": "[2]", "value": "no effect"}, {"measurement": "effect on the activity of carboxypeptidase A", "setting": "[3]", "value": "lack of inhibition; also recorded: do not show inhibition"}, {"measurement": "effect on the activity of carboxypeptidase A", "setting": "[3]; listed as 30-mer", "value": "no effect"}]}
